Results on twelve molecules are retold here after patent publication US9580413B2, “Substituted pyrrolidines as ROS tyrosine kinase inhibitors” (NIPPON SHINYAKU CO., LTD., priority 2012, dated 2017).

One assay concerns the target T1, JAK2 tyrosine kinase (Homo sapiens, UniProt O60674).
T1 construct: purchased Carna Biosciences, Inc
The assay can be described thus: JAK2 tyrosine kinase inhibitory activity test (ELISA). It is filed as biochemical, humans. The settings on record: 25 μM ATP substrate solution, 30° C., one hour. The essentials:
(§1)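 Human recombinant ROS or JAK2 kinase (added as a 0.25 nM solution) reacted for 1 h at 30 °C in 15 mM Tris-Cl pH 7.5, 0.01% Tween-20, 1 mM DTT with compound from DMSO. Substrate phosphotyrosine was detected by HRP anti-phosphotyrosine antibody and TMB at A450, and IC50 came from non-linear regression.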
Background: In an ELISA, binding on a coated surface is turned into a signal by an enzyme label.

The target in the next assay is T2, FIG-ROS/BaF3 cell (Homo sapiens, UniProt P08922).
T2 construct: fused on or other part: Q9HD26 (Golgi-associated PDZ and coiled-coil motif-containing protein)
Briefly: Proliferation inhibitory activity test against FIG-ROS/BaF3 cell. It is filed as cell-based. The settings on record: 3 days incubation, cell counting kit; read-out: Proliferation inhibitory activity against FIG-ROS/BaF3 cell (IC50). As for the experimental part: A BaF3 cell which had been transformed by introducing the FIG-ROS fusion gene (derived from U118MG human glioma cell) (FIG-ROS/BaF3 Cell) was prepared on a culture medium, seeded on a 96-well plate in the number of 1×10^3/100 μL per well, and then allowed to stand in a CO2 incubator (at 37° C. and 5% CO2). As the culture medium, 10% FBS (fetal bovine serum)-incorporated RPMI-1640 was used.
2. Proliferation Inhibitory Activity Test:
A test substance was dissolved in dimethyl sulfoxide (DMSO) to 10 mM and further diluted with DMSO to 100-fold to prepare a 100 μM solution. This was diluted with a 1% DMSO-incorporated medium to concentrations of 10-fold of the concentration to be measured (10,000, 1,000, 100, 10, and 1 nM). Each of the medicine solutions was added at 11 μL per well and mixed. To a control having no medicine added thereto, a 1% DMSO-incorporated medium was added, and incubated in a CO2 incubator (at 37° C. and 5% CO2) for 3 days. After completion of the incubation, the number of live cells was counted using a cell counting kit. First of all, each cell counting kit solution was added at 5 μL per well and mixed, and incubated in a CO2 incubator (at 37° C. and 5% CO2) for 4 hours. An absorbance at 450 nm was measured with a microplate reader (Model 3550, manufactured by BIO-RAD, Benchmark, manufactured by BIO-RAD, or iMARK, manufactured by BIO-RAD) with a reference wavelength of 650 nm.
3. Analysis of Measurement Results:
A non-linear regression analysis was performed for the measured absorbance with an SAS system (SAS Institute Inc.), and a concentration of each of the test substances of inhibiting the cell proliferation at 50% (IC50) was calculated. The proliferation inhibitory activity (IC50, nM) of each of the test substances against the FIG-ROS/BaF3 cell is shown in Table 9.
(In general: Formazan colour is commonly taken as a measure of viable cells.)

Another assay concerns the target T3, ROS tyrosine kinase (Homo sapiens, UniProt P08922).
T3 construct: purchased Carna Biosciences, Inc
Briefly: ROS tyrosine kinase inhibitory activity test (ELISA). The settings on record: 25 μM ATP substrate solution, 30° C., one hour. It is filed as biochemical, humans. The essentials:
as §1

Assay [1] concerns non-small cell lung cancer with ROS fusion gene positive. The settings on record: clinical application, Non-Patent Document 22; cited from earlier work.

pIC50: −log10 of the molar value. Counter-ions that a name gives are not always drawn. A value given as a limit tells only on which side of the number the result lay.

For orientation: pIC50 means the negative decadic logarithm of the IC50, by convention in mol/L. Read a high pIC50 as a low IC50.

T1 sequence (O60674 whole entry): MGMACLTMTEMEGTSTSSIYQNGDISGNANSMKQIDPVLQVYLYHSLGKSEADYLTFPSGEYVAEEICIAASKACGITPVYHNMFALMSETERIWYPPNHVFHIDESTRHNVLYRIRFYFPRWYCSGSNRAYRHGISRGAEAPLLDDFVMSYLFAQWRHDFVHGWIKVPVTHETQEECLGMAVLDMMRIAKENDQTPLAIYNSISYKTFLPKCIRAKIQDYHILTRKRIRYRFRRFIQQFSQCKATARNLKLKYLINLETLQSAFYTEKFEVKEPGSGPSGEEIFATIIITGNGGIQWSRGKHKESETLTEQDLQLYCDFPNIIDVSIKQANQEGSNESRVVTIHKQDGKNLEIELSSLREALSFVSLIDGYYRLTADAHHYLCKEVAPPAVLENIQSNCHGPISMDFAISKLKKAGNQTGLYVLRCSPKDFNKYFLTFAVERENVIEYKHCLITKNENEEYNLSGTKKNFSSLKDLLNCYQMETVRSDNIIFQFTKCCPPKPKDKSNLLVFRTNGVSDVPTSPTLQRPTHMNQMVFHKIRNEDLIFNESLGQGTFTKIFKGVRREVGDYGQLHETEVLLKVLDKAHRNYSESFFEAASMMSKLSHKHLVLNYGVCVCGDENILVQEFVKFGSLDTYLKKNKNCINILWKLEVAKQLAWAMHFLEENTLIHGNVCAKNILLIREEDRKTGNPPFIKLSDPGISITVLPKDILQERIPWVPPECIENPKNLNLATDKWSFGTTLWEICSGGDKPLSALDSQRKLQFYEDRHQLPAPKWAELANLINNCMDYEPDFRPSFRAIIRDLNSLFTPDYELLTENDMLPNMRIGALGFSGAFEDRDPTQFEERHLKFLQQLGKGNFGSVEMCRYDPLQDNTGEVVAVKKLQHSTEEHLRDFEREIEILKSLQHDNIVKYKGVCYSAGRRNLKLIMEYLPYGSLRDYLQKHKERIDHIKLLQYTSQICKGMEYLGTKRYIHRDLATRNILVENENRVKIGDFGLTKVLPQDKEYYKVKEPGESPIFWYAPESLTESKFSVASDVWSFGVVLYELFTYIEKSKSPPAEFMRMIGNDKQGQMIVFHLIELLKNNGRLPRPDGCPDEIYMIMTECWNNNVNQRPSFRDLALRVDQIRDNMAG
T2 sequence (P08922 whole entry, change not shown, the tested form may be a part): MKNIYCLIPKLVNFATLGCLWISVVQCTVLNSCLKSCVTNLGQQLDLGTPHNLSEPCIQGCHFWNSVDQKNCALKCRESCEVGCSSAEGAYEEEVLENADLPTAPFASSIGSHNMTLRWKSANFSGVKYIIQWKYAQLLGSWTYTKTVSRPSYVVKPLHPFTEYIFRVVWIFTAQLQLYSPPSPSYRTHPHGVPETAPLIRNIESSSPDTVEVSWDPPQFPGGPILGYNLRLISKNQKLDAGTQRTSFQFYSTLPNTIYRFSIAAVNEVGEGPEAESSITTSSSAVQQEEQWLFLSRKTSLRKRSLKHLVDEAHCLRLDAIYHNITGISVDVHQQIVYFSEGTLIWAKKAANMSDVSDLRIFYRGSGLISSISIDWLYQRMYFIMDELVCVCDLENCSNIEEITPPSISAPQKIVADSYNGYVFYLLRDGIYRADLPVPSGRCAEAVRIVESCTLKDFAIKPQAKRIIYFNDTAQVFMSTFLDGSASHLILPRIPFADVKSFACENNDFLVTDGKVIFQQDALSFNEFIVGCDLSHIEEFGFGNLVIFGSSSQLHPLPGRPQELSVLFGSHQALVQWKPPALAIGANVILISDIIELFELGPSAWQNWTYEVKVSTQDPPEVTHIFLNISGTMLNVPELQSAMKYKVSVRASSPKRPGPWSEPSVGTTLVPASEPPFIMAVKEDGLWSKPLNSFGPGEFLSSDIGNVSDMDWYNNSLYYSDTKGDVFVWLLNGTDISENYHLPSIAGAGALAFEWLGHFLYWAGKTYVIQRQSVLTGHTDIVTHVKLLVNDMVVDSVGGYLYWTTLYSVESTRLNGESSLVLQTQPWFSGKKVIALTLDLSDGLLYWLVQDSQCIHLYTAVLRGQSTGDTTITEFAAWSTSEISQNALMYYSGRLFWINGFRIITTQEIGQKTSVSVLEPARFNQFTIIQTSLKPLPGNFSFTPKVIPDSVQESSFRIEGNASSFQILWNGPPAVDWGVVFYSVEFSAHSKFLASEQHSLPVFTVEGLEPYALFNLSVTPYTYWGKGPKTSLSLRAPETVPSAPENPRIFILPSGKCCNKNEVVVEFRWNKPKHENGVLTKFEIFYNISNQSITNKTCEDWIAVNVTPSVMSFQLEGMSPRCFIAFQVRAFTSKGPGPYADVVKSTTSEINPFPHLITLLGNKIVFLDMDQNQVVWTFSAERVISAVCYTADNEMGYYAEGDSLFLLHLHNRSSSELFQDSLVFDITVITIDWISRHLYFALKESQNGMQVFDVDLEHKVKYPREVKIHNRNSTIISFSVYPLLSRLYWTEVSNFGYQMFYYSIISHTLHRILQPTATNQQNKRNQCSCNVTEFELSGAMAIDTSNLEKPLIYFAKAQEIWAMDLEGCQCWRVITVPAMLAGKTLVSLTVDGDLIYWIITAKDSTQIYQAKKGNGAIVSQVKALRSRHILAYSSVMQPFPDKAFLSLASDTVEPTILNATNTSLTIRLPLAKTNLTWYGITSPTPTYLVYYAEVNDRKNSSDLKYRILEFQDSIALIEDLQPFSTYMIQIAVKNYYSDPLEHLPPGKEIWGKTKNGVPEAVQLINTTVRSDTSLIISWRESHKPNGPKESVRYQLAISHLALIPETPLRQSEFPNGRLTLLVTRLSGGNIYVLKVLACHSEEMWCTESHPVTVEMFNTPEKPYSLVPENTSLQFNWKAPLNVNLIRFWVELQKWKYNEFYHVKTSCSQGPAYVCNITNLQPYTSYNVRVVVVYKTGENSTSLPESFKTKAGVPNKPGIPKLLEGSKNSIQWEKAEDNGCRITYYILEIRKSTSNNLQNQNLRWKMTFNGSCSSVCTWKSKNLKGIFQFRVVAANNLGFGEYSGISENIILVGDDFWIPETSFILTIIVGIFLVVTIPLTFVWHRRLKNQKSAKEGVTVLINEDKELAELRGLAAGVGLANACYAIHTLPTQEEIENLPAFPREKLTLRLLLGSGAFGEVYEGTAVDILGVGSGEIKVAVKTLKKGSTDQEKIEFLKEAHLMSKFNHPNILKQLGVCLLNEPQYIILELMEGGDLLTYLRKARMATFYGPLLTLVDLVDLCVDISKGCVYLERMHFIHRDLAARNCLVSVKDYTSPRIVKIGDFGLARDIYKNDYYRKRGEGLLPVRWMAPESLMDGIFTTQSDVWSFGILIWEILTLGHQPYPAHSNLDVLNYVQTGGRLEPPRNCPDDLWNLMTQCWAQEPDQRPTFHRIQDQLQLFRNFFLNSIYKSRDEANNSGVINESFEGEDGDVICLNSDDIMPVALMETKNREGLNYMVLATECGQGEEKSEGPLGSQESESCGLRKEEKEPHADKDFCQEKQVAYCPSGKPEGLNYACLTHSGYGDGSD

As to `COc1c(Nc2ncc(C#N)s2)nc(N2CCC[C@H]2c2ccc(C)cc2)nc1-c1cnc(C)nc1` [Example 60, 2-({5-Methoxy-2′-methyl-2-[(2S)-2-(4-methylphenyl)pyrrolidin-1-yl]-4,5′-bipyrimidin-6-yl}amino)-1,3-thiazole-5-carbonitrile], the pIC50 was 6.13 at JAK2 tyrosine kinase and 8.64 against ROS tyrosine kinase. Moreover, the GI50 on FIG-ROS/BaF3 cell turned out to be 2.9 nM.
Regarding `COc1c(Nc2ncns2)nc(N2CCC[C@H]2c2ccc(C)cc2)nc1-c1cnn(CCO)c1` [Example 61, 2-(4-{5-Methoxy-2-[(2S)-2-(4-methylphenyl)pyrrolidin-1-yl]-6-(1,2,4-thiadiazol-5-ylamino)pyrimidin-4-yl}-1H-pyrazol-1-yl)ethanol], the pIC50 on JAK2 tyrosine kinase was 6.31; at ROS tyrosine kinase it was 8.60. Also, at FIG-ROS/BaF3 cell, the GI50 amounted to 1 nM.
In the case of `COc1c(Nc2ncc(C#N)s2)nc(N2CCC[C@H]2c2ccc(C)cc2)nc1C(=O)N[C@H]1CC[C@H](O)CC1` [Example 62, 6-[(5-Cyano-1,3-thiazol-2-yl)amino]-N-(trans-4-hydroxycyclohexyl)-5-methoxy-2-[(2S)-2-(4-methylphenyl)pyrrolidin-1-yl]pyrimidine-4-carboxamide], the pIC50 against JAK2 tyrosine kinase was < 6.00; at ROS tyrosine kinase, 8.68. In addition, on FIG-ROS/BaF3 cell, the GI50 worked out at 2.6 nM.
Regarding `COc1c(Nc2ncc(C#N)s2)nc(N2CCC[C@H]2c2ccc(C)cc2)nc1C(=O)N[C@H]1CC[C@H](C(=O)O)CC1` [Example 63, Trans-4-[({6-[(5-cyano-1,3-thiazol-2-yl)amino]-5-methoxy-2-[(2S)-2-(4-methylphenyl)pyrrolidin-1-yl]pyrimidin-4-yl}carbonyl)amino]cyclohexanecarboxylic acid], the negative logarithm of the IC50 (pIC50) on JAK2 tyrosine kinase was 6.92; on ROS tyrosine kinase it was 9.52. The GI50 at FIG-ROS/BaF3 cell is 3.5 nM.
As to `COCCNC(=O)c1nc(N2CCC[C@H]2c2ccc(C)cc2)nc(Nc2ncc(C#N)s2)c1OC` [Example 64, 6-[(5-Cyano-1,3-thiazol-2-yl)amino]-5-methoxy-N-(2-methoxyethyl)-2-[(2S)-2-(4-methylphenyl)pyrrolidin-1-yl]pyrimidine-4-carboxamide], the pIC50 against JAK2 tyrosine kinase was < 6.00; against ROS tyrosine kinase, 8.59. Also, the GI50 at FIG-ROS/BaF3 cell was 1.5 nM.
In the same order, the values of `COc1c(Nc2ncc(C#N)s2)nc(N2CCC[C@H]2c2ccc(C)cc2)nc1-c1ccc(O)nc1` [Example 65, 2-({6-(6-Hydroxypyridin-3-yl)-5-methoxy-2-[(2S)-2-(4-methylphenyl)pyrrolidin-1-yl]pyrimidin-4-yl}amino)-1,3-thiazole-5-carbonitrile] are 6.59, 8.89 and 1.9 nM.
For `CCc1c(Nc2ncc(C#N)s2)nc(N2CCC[C@H]2c2ccc(C)cc2)nc1C(=O)NS(C)(=O)=O` [Example 67, 6-[(5-Cyano-1,3-thiazol-2-yl)amino]-5-ethyl-2-[(2S)-2-(4-methylphenyl)pyrrolidin-1-yl]-N-(methylsulfonyl)pyrimidine-4-carboxamide], the figures for the negative-log IC50 (pIC50) against JAK2 tyrosine kinase and at ROS tyrosine kinase were 6.43 and 8.82, respectively. The GI50 on FIG-ROS/BaF3 cell is 2.1 nM.
With `Cc1ccc([C@@H]2CCCN2c2cc(C(=O)N[C@H]3CC[C@H](O)CC3)c(C)c(Nc3ncc(C#N)s3)n2)cc1` [Example 68, 2-[(5-Cyano-1,3-thiazol-2-yl)amino]-N-(4-hydroxycyclohexyl)-3-methyl-6-[(2S)-2-(4-methylphenyl)pyrrolidin-1-yl]pyridine-4-carboxamide], the pIC50 on JAK2 tyrosine kinase is 7.66; against ROS tyrosine kinase, 9.12. The GI50 at FIG-ROS/BaF3 cell was 0.71 nM.
`Cc1ccc([C@@H]2CCCN2c2cc(-c3cnn(C)c3)cc(Nc3ncns3)n2)cc1` [Example 69, 6-[(2S)-2-(4-Methylphenyl)pyrrolidin-1-yl]-4-(1-methyl-1H-pyrazol-4-yl)-N-(1,2,4-thiadiazol-5-yl)pyridine-2-amine]: the pIC50 was 7.77 against JAK2 tyrosine kinase and 7.96 at ROS tyrosine kinase. Moreover, the GI50 at FIG-ROS/BaF3 cell came to 6.9 nM.
Take `CCc1c(C)nc(N2CCC[C@H]2c2ccc(C)cc2)nc1Nc1ncc(C#N)s1` [Example 70, 2-({5-Ethyl-6-methyl-2-[(2S)-2-(4-methylphenyl)pyrrolidin-1-yl]pyrimidin-4-yl}amino)-1,3-thiazole-5-carbonitrile maleate]: the pIC50 was < 6.00 at JAK2 tyrosine kinase and 8.54 at ROS tyrosine kinase. Moreover, the GI50 at FIG-ROS/BaF3 cell came to 1.7 nM.
Taken in the same sequence, the figures for `CC(=O)N1CCc2nc(N3CCC[C@H]3c3ccc(C)cc3)nc(Nc3ncc(C#N)s3)c2C1` [Example 71, 2-({6-Acetyl-2-[(2S)-2-(4-methylphenyl)pyrrolidin-1-yl]-5,6,7,8-tetrahydropyrido[4,3-d]pyrimidin-4-yl}amino)-1,3-thiazole-5-carbonitrile] were 6.82, 8.92 and 2 nM.
Turning to `C[C@@H](Oc1cc(-c2cnn(C3CCNCC3)c2)cnc1N)c1c(Cl)ccc(F)c1Cl` [crizotinib], the “effectiveness for patients of non-small cell lung cancer with ROS fusion gene positive” value in assay [1] was “effective”.
